# “Also recorded” adds a separate entry of the source.
# Legend:
# [1] = tested on: Alveolus-Chip epithelium/endothelium barrier; experiment: Barrier function assay (fluorescent dextran / Lucifer Yellow leakage) in Open-Top Alveolus-Chip; assay type: cell-based, human; conditions: for preventive effect on barrier leakage: co-administered with H2O2 (10 mM), 50 nM Bardoxolone, 0.01-1.0 μM GSK, 2 μM JQ1; for reversibility of barrier breakdown after removal of stressor: additional 2 days in fresh medium
# Source text: We studied interaction between different chip compartments by perturbating the system with biological and chemical stressors such as LPS, and H2O2 which are known to induce a reversible disruption of the cellular monolayer after acute administration both in vivo and in vitro. […] The presence of a strong barrier is indirectly confirmed by the presence of continuous pattern of E-cad and VE-cad in the monolayer of Alveolar epithelial and endothelial cell, respectively.
# (§1) Given the limited availability of in vitro models that can closely mimic human alveolar epithelium function and/or its disease states, we explored whether a microfluidic Alveolus-Chip lined with the primary alveolar epithelial cells on an artificial lung stroma with embedded primary lung fibroblasts and pulmonary microvascular endothelial cells would model a lung injury state. To test this, we exposed the Alveolus-Chips to an acute damage generated by exposure to H2O2 under continuous infusion through the epithelium top channel, similarly to as it is […] administered in mice.
# Air-Liquid interface was replaced by phenol red free MEM (GIBCO: 51200-038) and medium in the bottom fluidical spiraled channel substituted by one containing 1 mg/ml Lucifer Yellow CH, Lithium Salt (ThermoFisher: L453) or 0.1 mg/ml Dextran, Fluorescein, 3000 MW, Anionic, Lysine Fixable (ThermoFisher: D3306). Leakage of the fluorescent probe from the lumen of the spiraled channel to the epithelial compartment was collected from the outlet reservoirs after indicated hours of perfusion. The fluorescence intensity was measured with a 96-well fluorimeter at excitation/emission indicated by the manufacturer.
# [2] = tested on: cellular monolayer barrier; experiment: Barrier function in static transwell; assay type: cell-based; conditions: doses up to 100 ng/ml LPS, 10 mM H2O2
# IL-6, IL-8 and MCP-1 = experiment: Cytokine secretion in chip medium effluent (ELISA); assay type: cell-based, human; conditions: 24 hours of exposure
# Source text: We studied interaction between different chip compartments by perturbating the system with biological and chemical stressors such as LPS, and H2O2 which are known to induce a reversible disruption of the cellular monolayer after acute administration both in vivo and in vitro. […] To assess changes in the barrier function following the exposure to these insults, we added a fluorescent dye (e.g. […]—Dextran-FITC) to the endothelial compartment, which is under control condition confirmed that the endothelium and epithelium form a barrier to the dies. The presence of a strong barrier is also indirectly confirmed by the presence of continuous pattern of E-cad and VE-cad in the monolayer of Alveolar epithelial and endothelial cell, respectively. […] We also decoupled the effect of single biological component to the inflammatory response by selectively removing them from the system in an integrated matrix. […] In fact, the recorded value of IL-6 and IL-8 is not the algebraic sum of the concentration of the factors released by the single cellular components. […]
# The amount of Surfactant B and C was collected from chip epithelial cell surface by PBS washing and measured by Human SFTPB/Surfactant Protein B ELISA Kit (Sandwich ELISA)—LS-F4439 and Human SFTPC/Surfactant Protein C ELISA Kit (Sandwich ELISA)—LS-F12438 (LifeSpanBioScience) following the manufacturer's protocol. The color reaction was measured at 450 nm with a photometer (specification). […] Similarly, the presence of IL-6, IL-8 and MPC in medium samples was detected by Human TLR-induced Cytokines II: Microbial-induced Multi-Analyte ELISArray Kit (MEH-008A) (Qiogen) following the manufacturer's protocol. The color reaction was measured at 450 nm with a photometer (specification). […]
# E-Cadherin = E-Cadherin / phalloidin imaging of Alveolus-Chip epithelium after H2O2; assay type: cell-based, human
# Procedure: In one embodiment, a method is used for testing the effects of activating the Nrf2 system on pathological cell responses using an activating treatment, such as H2O2; LPS, etc. […] Control left panel, H2O2 (10 mM) (48 h) treatment, right panel. E-cadherin (green) actin (pink) and nuclei blue.
# as §1
# Open-Top Organ-Chips were fixed in 10% neutral buffered formalin. Endothelial cells were stained inside the chip by performinutesg the immunofluorescence steps described below directly inside the microfluidic channel. Stroma equivalents were stained as described by the step below inside the chip or alternatively extracted from the chip and processed for immunohistochemistry analysis. […]
# [3] = tested on: human airway epithelium on-chip; conditions: cited from earlier work
# [4] = tested on: alpha smooth muscle Actin (alpha-SMA); experiment: TGF-β treatment of open top Alveolar-Chip (EMT markers, immunostaining / qRT-PCR); assay type: cell-based, human; conditions: TGF-β up to 72 hours, versus vehicle
# Source text: E-cadherin is shown in pink.
compound,measurement,setting,value
"CC1(C)CC[C@]2(C(=O)O)CC[C@]3(C)[C@H](C(=O)C=C4[C@@]5(C)C=C(C#N)C(=O)C(C)(C)[C@@H]5CC[C@]43C)[C@@H]2C1 [Bardoxolone, Bardoxolone (methyl)]",preventive effect on barrier leakage,[1],significant preventive effect on the barrier leakage
OO [H2O2],effect of stressor on barrier function,[1]; LPS 10 ng/ml and/or H2O2 10 mM,causes barrier breakdown and disruption of intracellular junction; also recorded: significant loss of barrier function
same,reversibility of barrier breakdown after removal of stressor,[1],barrier breakdown in our chip was reversable
same,loss of barrier function,[2],dose dependent loss of barrier function
same,"release of IL-6, IL-8 and MCP-1 in medium effluent","IL-6, IL-8 and MCP-1",no apparent correlation
same,E-Cadherin distribution,"E-Cadherin; H2O2 10 mM, 48 h",induces redistribution of E-Cadherin; also recorded: pronounced loss and re-distribution of E-Cadherin
same,pneumocyte monolayer integrity (microscopy),E-Cadherin; H2O2 continuous infusion through epithelium top channel,disruption of the pneumocyte monolayer with partial cell detachment
"Cc1sc2c(c1C)C(c1ccc(Cl)cc1)=N[C@@H](CC(=O)OC(C)(C)C)c1nnc(C)n1-2 [JQ1, thienotriazolodiazepine]",preventive effect on barrier leakage,[1],significant preventive effect on the barrier leakage
C[C@@H]1CCN(C(=O)CC#N)C[C@@H]1N(C)c1ncnc2[nH]ccc12 [Tofacitinib],effect on IL-13 induced phenotype,[3],suppressed
IL-13: cytokine perfused to mimic a Th2 enriched microenvironment,airway phenotype on IL-13 perfusion through the vascular channel,[3],significant airway remodeling with goblet cells hyperplasia
"TGF-β: transforming growth factor beta1, cytokine inducing epithelial to mesenchymal transition",reversibility of barrier breakdown after removal of stressor,[1],barrier breakdown in our chip was reversable
same,ICAM-1 staining,[4],lack of ICAM-1
same,alpha-SMA induction,[4],induction of alpha smooth muscle Actin (alpha-SMA)
